Test: xn = mol fraction of the nth substance listed
Details: 101 kPa, Liquid; for speed of sound: Sing-around technique in a fixed-path interferometer

COC(C)(C)C [2-methoxy-2-methylpropane] + Cc1ccc(C)cc1
Details	mass density [kg/m3]	speed of sound [m/s]
305.65 K, x1 = 0.051	844.579	–
305.65 K, x1 = 0.111	837.921	–
305.65 K, x1 = 0.199	827.849	–
305.65 K, x1 = 0.297	816.672	–
305.65 K, x1 = 0.394	805.171	–
305.65 K, x1 = 0.5	792.236	–
305.65 K, x1 = 0.591	780.907	–
305.65 K, x1 = 0.7	767.085	–
305.65 K, x1 = 0.799	753.909	–
305.65 K, x1 = 0.898	740.58	–
305.65 K, x1 = 0.949	733.654	–
305.65 K, x1 = 1	726.444	–
308.15 K, x1 = 0.051	842.382	1255.6
308.15 K, x1 = 0.111	835.701	1241.2
308.15 K, x1 = 0.199	825.592	1218.5
308.15 K, x1 = 0.297	814.375	1193
308.15 K, x1 = 0.394	802.832	1166.6
308.15 K, x1 = 0.5	789.848	1136.9
308.15 K, x1 = 0.591	778.473	1111.4
308.15 K, x1 = 0.7	764.594	1080.2
308.15 K, x1 = 0.799	751.361	1050.5
308.15 K, x1 = 0.898	737.971	1020.6
308.15 K, x1 = 0.949	731.009	1004.7
308.15 K, x1 = 1	723.763	990.99
310.65 K, x1 = 0.051	840.182	1245.6
310.65 K, x1 = 0.111	833.476	1230.9
310.65 K, x1 = 0.199	823.333	1208.2
310.65 K, x1 = 0.297	812.074	1182.6
310.65 K, x1 = 0.394	800.49	1156.1
310.65 K, x1 = 0.5	787.456	1126.2
310.65 K, x1 = 0.591	776.037	1100.6
310.65 K, x1 = 0.7	762.097	1069.3
310.65 K, x1 = 0.799	748.806	1039.4
310.65 K, x1 = 0.898	735.351	1009.4
310.65 K, x1 = 0.949	728.354	993.41
310.65 K, x1 = 1	721.069	979.62
313.15 K, x1 = 0.051	837.972	1235.6
313.15 K, x1 = 0.111	831.247	1220.7
313.15 K, x1 = 0.199	821.068	1197.8
313.15 K, x1 = 0.297	809.766	1172.2
313.15 K, x1 = 0.394	798.142	1145.5
313.15 K, x1 = 0.5	785.055	1115.5
313.15 K, x1 = 0.591	773.588	1089.9
313.15 K, x1 = 0.7	759.588	1058.4
313.15 K, x1 = 0.799	746.238	1028.3
313.15 K, x1 = 0.898	732.717	998.27
313.15 K, x1 = 0.949	725.685	982.13
313.15 K, x1 = 1	718.357	968.16
315.65 K, x1 = 0.051	835.765	1225.6
315.65 K, x1 = 0.111	829.014	1210.5
315.65 K, x1 = 0.199	818.798	1187.5
315.65 K, x1 = 0.297	807.454	1161.8
315.65 K, x1 = 0.394	795.788	1135
315.65 K, x1 = 0.5	782.649	1104.9
315.65 K, x1 = 0.591	771.132	1079.1
315.65 K, x1 = 0.7	757.069	1047.5
315.65 K, x1 = 0.799	743.66	1017.3
315.65 K, x1 = 0.898	730.073	987.1
315.65 K, x1 = 0.949	723.003	970.91
315.65 K, x1 = 1	715.636	956.8
318.15 K, x1 = 0.051	833.554	1215.7
318.15 K, x1 = 0.111	826.778	1200.4
318.15 K, x1 = 0.199	816.524	1177.3
318.15 K, x1 = 0.297	805.138	1151.5
318.15 K, x1 = 0.394	793.428	1124.6
318.15 K, x1 = 0.5	780.236	1094.3
318.15 K, x1 = 0.591	768.668	1068.5
318.15 K, x1 = 0.7	754.544	1036.7
318.15 K, x1 = 0.799	741.073	1006.4
318.15 K, x1 = 0.898	727.417	976.02
318.15 K, x1 = 0.949	720.308	959.76
318.15 K, x1 = 1	712.897	945.54
320.65 K, x1 = 0.051	831.342	1205.8
320.65 K, x1 = 0.111	824.54	1190.3
320.65 K, x1 = 0.199	814.248	1167.1
320.65 K, x1 = 0.297	802.819	1141.1
320.65 K, x1 = 0.394	791.063	1114.2
320.65 K, x1 = 0.5	777.817	1083.8
320.65 K, x1 = 0.591	766.199	1057.9
320.65 K, x1 = 0.7	752.007	1025.9
320.65 K, x1 = 0.799	738.474	995.49
320.65 K, x1 = 0.898	724.747	964.93
320.65 K, x1 = 0.949	717.599	948.61
320.65 K, x1 = 1	710.141	934.24
323.15 K, x1 = 0.051	829.134	1196
323.15 K, x1 = 0.111	822.307	1180.4
323.15 K, x1 = 0.199	811.976	1157.1
323.15 K, x1 = 0.297	800.501	1131
323.15 K, x1 = 0.394	788.703	1103.9
323.15 K, x1 = 0.5	775.403	1073.3
323.15 K, x1 = 0.591	763.728	1047.4
323.15 K, x1 = 0.7	749.471	1015.2
323.15 K, x1 = 0.799	735.877	984.7
323.15 K, x1 = 0.898	722.077	954
323.15 K, x1 = 0.949	714.887	937.58
323.15 K, x1 = 1	707.381	922.97

Reference: the NIST ThermoML archive (doi:10.1016/j.fluid.2008.03.004)
